Source: patent publication US20220308062A1, “METHODS FOR PREDICTING DRUG RESPONSIVENESS IN SAMPLES FROM CANCER SUBJECTS” (Board of Regents, The University of Texas System, priority 2019, published 2022)
“Also recorded” adds a separate entry of the source.

What was measured:
[1] = tested on: patients with advanced tumors; details: early results, ref [21]; cited from earlier work
A549 and H2009 cells [2] = assay: Western blot analysis; assay type: cell-based, human; details: H2009, traditional western blot (FIG. 8C)
Procedure: Western blot analysis. […] Cell lysates were harvested using RIPA buffer. The concentration of protein lysates was determined by Pierce™ BCA Protein Assay Kit (Thermo fisher). Forty micrograms of the total protein extracts were separated by NuPAGE™ 4-12% Bis-Tris Protein Gels (Thermo fisher) and transferred to PVDF membrane. The membrane was then blocked with 5% of Blotting-Grade Blocker (BioRad) in TBST and probed using primary antibodies including: 1) oncogenic pathways: JAK1, pSTAT3, STAT3, pAKT and pERK1/2 (Cell Signaling Technology; 3344S, 9131S, 9139T, 4060, 4377S); 2) cancer stemness markers: CD133 and ALDH1A1 (Cell Signaling Technology; 64326S and 54135S); and 3) EMT markers: Vimentin (Novus; NBP1-92687), N-cadherin, EpCAM (Abcam; ab71916) and CK8/18 (Novus; NBP2-44930); 4) loading control: GAPDH (Cell Signaling Technology; 2118S). Membrane was incubated in HRP-linked secondary antibodies following dilution with TBST (1:5000) at room temperature for one hour. Blots were developed using Western Lightning Plus-ECL Chemiluminescent Reagents (Perkin Elmer, Waltham, Mass.) and Syngene G:BOX Imaging System.

[3] = tested on: A549, H2009 and H226 cell lines; assay: Wound healing (migration) assay; assay type: cell-based, human
Procedure: (§1) Analysis was performed using IncuCyte ZOOM (Essen BioScience) with images acquired every 3 hr for up to 72 hr. Four images (proliferation) and one image (wound healing) were captured per well for each time point. Data were normalized to controls, and values for 50% effective concentration were calculated using Prism V7.0 (GraphPad software, San Diego, Calif.).
(§2) In vitro phenotypic assay. […] Proliferation and migration curves were generated using IncuCyte ZOOM (Essen BioScience) with images acquired every 3 hr over a 72 hr timeframe. Images were captured per well for each time point. Data were normalized to controls, and values for 50% inhibitory concentration were calculated using Prism V8.0 (GraphPad software).

A549 and H2009 cells [4] = assay: Capillary Western immunoassay (WES); assay type: cell-based, human
Procedure: Capillary Western immunoassay. Protein lysates of A549 lung cancer cells were prepared in radioimmunoprecipitation assay buffer (Thermo Fisher Scientific). Proteins with 12-230 kDa were analyzed in the Western immunoassay (WES) Separation Module of the quantitative capillary Western immunoassay system (ProteinSimple, San Jose, Calif.). The following antibodies were used: (i) β-catenin, AXL, AKT, C-RAF, p38 MAPK, MEK1/2, P42/44 MAPK, SMAD2/3, SMAD4, and GAPDH from Cell Signaling Technology (Danvers, Mass.); (ii) p-AXL from R&D Systems (Minneapolis, Minn.); (iii) vimentin, YAP1, TAZ, CK8/18 and CK19 from Novus Biologicals (Centennial, Colo.); (iv) N-cadherin from Abcam (Cambridge); (v) E-cadherin from BD Biosciences (San Jose, Calif.). Protein expression levels were normalized with that of GAPDH.
Capillary Western immunoassay (WES). Protein lysates of A549 and H2009 cells were prepared in radio-immunoprecipitation assay buffer (Thermo Fisher Scientific). Proteins were then analyzed in 12-230 and 66-440 kDa WES separation module of quantitative capillary Western immunoassay system (Protein Simple). The following antibodies were used: 1) AXL, AKT, JNK, p38 MAPK, MEK1/2, P42/44 MAPK, and GAPDH (Cell Signaling Technology); and 2) p-AXL and YAP1 (R&D Systems). Protein expression levels were normalized with GAPDH as loading controls.
Materials and methods. Capillary Western immunoassay (WES). Protein lysates of A549 and H2009 cells were prepared in radio-immunoprecipitation assay buffer (Thermo Fisher Scientific). Proteins were then analyzed in 12-230 and 66-440 kDa WES separation module of quantitative capillary Western immunoassay system (Protein Simple). Antibodies against AXL and GAPDH were (Cell Signaling Technology). Protein expression levels were normalized with GAPDH as loading controls.

H226 cells = assay: Proliferation assay (IncuCyte ZOOM), H226; assay type: cell-based; details: Homo sapiens, NCI-H226; H226 squamous cell cancer line; read-out: IC50 from proliferation curves
Procedure: as §1

A549 mouse xenograft = assay: Xenograft study of TP-0903 treatment; assay type: in vivo; details: oral 120 mg/kg twice weekly or 80 mg/kg daily
Procedure: (§3) Xenograft study of TP-0903 treatment. Mouse xenografts were implanted subcutaneously in the hind flank of the athymic nude mice. Tumor volumes were allowed to grow to a medium size (approximately 100 mm^3) before stratification and initiation of dosing. General health, tumor volumes, and bodyweights were followed over the course of the study.
as §3, with “grown” for “allowed to grow”, “(˜100” for “(approximately 100”, “dose initiation.” for “initiation of dosing.”

A549 cells = assay: Proliferation assay (IncuCyte ZOOM), A549; assay type: cell-based; details: Homo sapiens, read-out: IC50 from proliferation curves
Procedure: as §1, §2

A549 lung cancer cells = assay: Luminex multi-cytokine assay; assay type: cell-based, human; details: A549, 40 nmol/L, 24, 48, 72 hr
Procedure: Luminex multi-cytokine assay. […] Condition medium was harvested in 24, 48 and 72 hr after incubation. Condition medium was then subjected to a cytokine assay by using MILLIPLEX® MAP Human Cytokine Panel 1 (38 Plex) (Millipore, HCYTA-60K-PXBK38) in Luminex™ FLEXMAP 3D™ Instrument System.

H2009 cells = assay: Proliferation assay (IncuCyte ZOOM), H2009; assay type: cell-based; details: Homo sapiens, NCI-H2009; read-out: IC50 from proliferation curves
Procedure: as §1, §2

two other TAM family = details: refs [21, 22]; concentration not given; cited from earlier work

IC50 (H226 cells): 12.9 nM | IC50 (A549 cells): 31.6 nM | IC50 (H2009 cells): 35.5 nM
Structure (SMILES): CN1CCN(Cc2ccc(Nc3ncc(Cl)c(Nc4ccccc4S(=O)(=O)N(C)C)n3)cc2)CC1 [TP-0903]
tolerability in patients [1]: well tolerated | SLUG transcription factor levels (A549 and H2009 cells [2]): significantly decreased | cytotoxicity based on cell morphology ([3]; A549 and H2009, increasing concentrations): did not result in significant cytotoxicity | migration potential ([3]; increasing concentrations, 0-200 nM): significantly impeded | AXL level (WES) (A549 and H2009 cells [4]; A549, 40 nmol/L): down-regulated | cytokeratin 19 (CK19) level (A549 and H2009 cells [4]; A549 and H2009, 40 nM): noticeable increase | vimentin level (A549 and H2009 cells [4]; A549 and H2009, 40 nM): minor decrease | protein levels of AXL, phosphorylated AXL, SMAD2/3, SMAD4, YAP1, and TAZ (A549 and H2009 cells [4]; A549 and H2009, 40 nmol/L): reduced | effect on body weight (A549 mouse xenograft): without any adverse effects | tumor size / growth (A549 mouse xenograft; 21 days): substantial tumor size regression; also recorded: Growth inhibition was confirmed | IL-8, VEGF, and IL-11 secretion (A549 lung cancer cells): decreased | inhibition of two other TAM family (two other TAM family): 80%
